Test results taken from PubChem BioAssay (NCI).
Several values for one entry are separate records, joined by “and”; a condition that tells them apart may be missing. Equal values may be shown once.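 Method: 48-hour compound exposure of cells in 96-well plates, five concentrations, linear interpolation of endpoints. GI50: concentration for 50% inhibition of growth. Definition used: TGI = concentration required for complete inhibition of growth.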

What was measured:
Assay in all cases: NCI anticancer screen, dose series, 48 h
DU-145 prostate = test system: DU-145 prostate
M14 melanoma = test system: M14 melanoma
MCF7 breast = test system: MCF7 breast
MDA-MB-231 breast = test system: MDA-MB-231 breast
MDA-MB-435 = test system: MDA-MB-435
NCI-H460 lung = test system: NCI-H460 lung
NCI/ADR-RES ovarian = test system: NCI/ADR-RES ovarian
RXF 393 renal = test system: RXF 393 renal
T-47D breast = test system: T-47D breast
OVCAR-4 ovarian = test system: OVCAR-4 ovarian

| Structure (SMILES) | GI50 (DU-145 prostate) | TGI (DU-145 prostate) | GI50 (M14 melanoma) | TGI (M14 melanoma) | GI50 (MCF7 breast) | TGI (MCF7 breast) | GI50 (MDA-MB-231 breast) | TGI (MDA-MB-231 breast) | GI50 (MDA-MB-435) | TGI (MDA-MB-435) | GI50 (NCI-H460 lung) | TGI (NCI-H460 lung) | GI50 (NCI/ADR-RES ovarian) | TGI (NCI/ADR-RES ovarian) | GI50 (RXF 393 renal) | TGI (RXF 393 renal) | GI50 (T-47D breast) | TGI (T-47D breast) | GI50 (OVCAR-4 ovarian) | TGI (OVCAR-4 ovarian) |
| --- | --- | --- | --- | --- | --- | --- | --- | --- | --- | --- | --- | --- | --- | --- | --- | --- | --- | --- | --- | --- |
| COc1ccc(/C=C2/SC(Nc3nc(-c4nc(NC5=NC(=O)/C(=C\c6ccc(OC)cc6)S5)sc4C)c(C)s3)=NC2=O)cc1 | 2.43 µM | > 19.7 µM | 0.499 µM | 2.36 µM | 1.59 µM | > 30.7 µM | 1.35 µM | 7.14 µM | 0.143 µM | 0.633 µM | 1.4 µM | > 31.7 µM | 0.648 µM | 4.39 µM | 1.53 µM | 7.23 µM | 7.52 µM | > 50 µM | – | – |
| Cn1c2c(c3c(Cl)nncc31)Cc1ccccc1-2 | 6.4 µM | 41 µM | 28.1 µM | > 100 µM | 9.03 µM | > 100 µM | 21.2 µM | 73.5 µM | 29.7 µM | > 100 µM | 5.28 µM | 67.1 µM | 16.3 µM | 44.5 µM | 24.5 µM | 80.7 µM | – | – | 23.9 µM | > 100 µM |
| N#CC(C(=O)/C(=N\NC(N)=O)C(C#N)c1ccccc1)c1ccccc1 (stereo not given) | – | – | – | > 100 µM | – | – | – | – | – | – | – | > 100 µM | – | – | – | > 100 µM | – | – | – | > 100 µM |
| N/N=C(/Cc1nc2ccc(C(=O)c3ccccc3)cc2[nH]c1=O)C(=O)Nc1ccc([N+](=O)[O-])cc1[N+](=O)[O-] | – | – | > 100 µM | > 100 µM | – | – | – | – | – | – | > 100 µM | > 100 µM | – | – | – | > 100 µM | – | – | – | 71.5 µM |
| O=C1O/C(=C/c2ccccc2)C(c2ccccc2)=C1O | – | 97 µM | – | > 100 µM | – | > 100 µM | – | > 100 µM | – | 89.1 µM | – | – | – | > 100 µM | – | 70.3 µM | – | 74.2 µM | – | > 100 µM |
| COC(=O)C1C(=O)O[C@@H](c2cc(OC)c(OC)cc2OC)C1C(=O)OC (mixture of isomers) | – | – | – | > 100 µM | – | – | – | – | – | – | – | > 100 µM | – | – | – | > 100 µM | – | – | – | > 100 µM |
| COC(=O)C1=CC2C=CC(C1C(=O)OC)C1C(C(=O)OC)=C(C(=O)OC)C(C(=O)OC)=C(C(=O)OC)C21OC (stereo not given) | – | – | – | > 100 µM | – | – | – | – | – | – | – | > 100 µM | – | – | – | > 100 µM | – | – | – | > 100 µM |
| O=C1/C(=C/c2ccc(Cl)cc2)CNC/C1=C\c1ccc(Cl)cc1 | – | 7.57 µM | – | 8.7 µM | – | 21.2 µM | – | > 100 µM | – | 13.7 µM | – | – | – | 9.61 µM | 1.64 µM and 3.97 µM | 3 µM and 7.85 µM | – | 36.1 µM | 1.52 µM | – |
| Nc1ccccc1C(=O)CCC1C(=O)NC(=S)NC1=O | – | > 100 µM | – | > 100 µM | – | > 100 µM | – | – | – | – | – | > 100 µM | – | > 100 µM | – | > 100 µM | – | > 100 µM | – | > 100 µM |
| CC(=O)[CH-]C(=O)c1ccccc1.CC(=O)[CH-]C(=O)c1ccccc1.CC(=O)[CH-]C(=O)c1ccccc1.[Nd+3].[OH3+] | – | – | 43.2 µM | > 100 µM | – | – | – | – | – | – | 42.8 µM | > 100 µM | – | – | – | – | – | – | 93.8 µM | > 100 µM |
| CN(/N=C/c1ccnc2ccccc12)c1c([N+](=O)[O-])cc([N+](=O)[O-])cc1[N+](=O)[O-] | – | – | – | > 100 µM | – | – | – | – | – | – | – | > 100 µM | – | – | – | > 100 µM | – | – | – | > 100 µM |
| COc1cc(/C=N/N=C(\N)NO)c(Cl)cc1O | – | – | – | – | – | – | – | – | – | – | – | – | – | – | – | > 100 µM | – | – | – | > 100 µM |
| Oc1c(Cl)cc(Cl)c2ccc(Cn3cc(-c4ccc(C(F)(F)F)cc4)nn3)nc12 | 1.7 µM | 3.33 µM | 1.93 µM | 5.26 µM | – | – | 2.19 µM | 6.81 µM | 1.76 µM | 3.75 µM | 18.9 µM | 37.3 µM | 19 µM | 64.2 µM | 0.402 µM | 1.79 µM | 1.88 µM | 5.59 µM | 1.43 µM | 3.37 µM |
| Cc1cc(C)c(-c2noc(-c3ccc(Cl)cc3)c2C2=NCCCN2)c(C)c1 | – | – | – | 6.11 µM | – | – | – | – | – | – | – | 28.8 µM | – | – | – | 48.5 µM | – | – | – | > 100 µM |
| Clc1cccc(-c2nnc(-c3nn(-c4ccccc4)c4nc5ccccc5nc34)o2)c1 | – | – | – | > 100 µM | – | – | – | – | – | – | – | > 100 µM | – | – | – | > 100 µM | – | – | – | > 100 µM |
| NC1=NN(c2ccccc2)C(=O)C1C(=O)C(=O)Nc1ccc(Cl)c(Cl)c1 (stereo not given) | – | – | – | > 100 µM | – | – | – | – | – | – | – | > 100 µM | – | – | – | > 100 µM | – | – | – | > 100 µM |
| COc1cc(C(=O)c2cnc(-c3cccc4[nH]ccc34)[nH]2)cc(OC)c1OC | 0.0996 µM and < 0.01 µM | > 100 µM | 0.0505 µM and < 0.01 µM | – | 0.059 µM and < 0.01 µM | > 100 µM | – | 20.7 µM | 0.0282 µM | – | 0.0434 µM and < 0.01 µM | > 100 µM | 0.0729 µM and < 0.01 µM | > 100 µM | 0.113 µM | – | – | – | < 0.01 µM | > 100 µM |
| CNS(=O)(=O)NNS(=O)(=O)c1ccc(OC)cc1 | – | – | – | > 100 µM | – | – | – | – | – | – | – | > 100 µM | – | – | – | > 100 µM | – | – | – | > 100 µM |
| O=[N+]([O-])c1cc([N+](=O)[O-])c(Nn2c3ccccc3c3ccccc32)c([N+](=O)[O-])c1 | 0.442 µM | 20.1 µM and 18.7 µM | 0.381 µM | – | 0.292 µM | 5.86 µM | – | – | 0.348 µM | 7.16 µM and 2.27 µM | 0.342 µM | 13 µM and 1.93 µM | 0.317 µM | > 100 µM | 0.272 µM | 1.24 µM | 0.278 µM | – | 0.342 µM | > 100 µM |
| O=C(/C=C\c1cccc2ccccc12)c1ccc(Cl)cc1Cl | – | – | – | 41.3 µM | – | – | – | – | – | – | – | 51.6 µM | – | – | – | – | – | – | – | > 100 µM |
| COc1ccc(OC)c(/C=N/N=C(\N)NO)c1 | – | – | – | 89.4 µM | – | – | – | – | – | – | – | > 100 µM | – | – | – | > 100 µM | – | – | – | > 100 µM |
| Cc1cc2c(-c3nc4ccccn4c3N)c(O)c(O)cc2c(O)c1-c1c(C)cc2c(-c3nc4ccccn4c3N)c(O)c(O)cc2c1O | – | – | 1.18 µM | > 25 µM | 0.606 µM | > 25 µM | 3.11 µM | > 25 µM | 0.716 µM | > 25 µM | 0.103 µM | 3.11 µM | 4.49 µM | > 25 µM | 0.682 µM | 18 µM | 0.502 µM | > 25 µM | 4.85 µM | > 25 µM |
| O=C1c2ccccc2C2CCC1c1ccccc12 (stereo not given) | – | – | – | > 100 µM | – | – | – | – | – | – | – | > 100 µM | – | – | – | 78 µM | – | – | – | 76.1 µM |
| COC(=O)[C@@]12CC(C(C)C)[C@H]3CC(C(=O)C=C1OC)[C@H]32 (stereo not given in full) | – | – | – | > 100 µM | – | – | – | – | – | – | – | > 100 µM | – | – | – | > 100 µM | – | – | – | > 100 µM |
